This passage reports DC50 and Dmax results from patent US11957759B1, “Rapidly accelerated fibrosarcoma (RAF) degrading compounds and associated methods of use” (Arvinas Operations, Inc., priority 2022, dated 2024).

One experiment addresses T1, B-RAF V600E (Homo sapiens, UniProt P15056, V600E).
T1 construct: expressed in transfected cells; host or cells: T-Rex 293 cells (Invitrogen #R71007)
The experiment in a line: Target protein degradation, assay A: T-Rex 293 cells, HA-B-RAF_V600E, 96 well format. The experiment is classed as cell-based. To be noted: T-Rex 293 HA-B-RAF_V600E cells, 24 hours, Examples 1-82. A digest of the protocol:
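T-Rex 293 cells stably expressing doxycycline-inducible HA-B-RAF V600E (1 ng/mL doxycycline) treated 24 h at 37 °C with compound, final 1 μM to 0.1 nM in 0.1% DMSO. Fixed, permeabilized cells immunostained for HA and imaged by high-content microscopy; DC50 and Dmax (% of control) reported.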

In a further experiment the target is T2, B-RAF G466V (Homo sapiens, UniProt P15056, G466V).
T2 construct: expressed in transfected cells; host or cells: T-Rex 293 cells (Invitrogen #R71007)
T2 sequence (P15056 whole entry G466V): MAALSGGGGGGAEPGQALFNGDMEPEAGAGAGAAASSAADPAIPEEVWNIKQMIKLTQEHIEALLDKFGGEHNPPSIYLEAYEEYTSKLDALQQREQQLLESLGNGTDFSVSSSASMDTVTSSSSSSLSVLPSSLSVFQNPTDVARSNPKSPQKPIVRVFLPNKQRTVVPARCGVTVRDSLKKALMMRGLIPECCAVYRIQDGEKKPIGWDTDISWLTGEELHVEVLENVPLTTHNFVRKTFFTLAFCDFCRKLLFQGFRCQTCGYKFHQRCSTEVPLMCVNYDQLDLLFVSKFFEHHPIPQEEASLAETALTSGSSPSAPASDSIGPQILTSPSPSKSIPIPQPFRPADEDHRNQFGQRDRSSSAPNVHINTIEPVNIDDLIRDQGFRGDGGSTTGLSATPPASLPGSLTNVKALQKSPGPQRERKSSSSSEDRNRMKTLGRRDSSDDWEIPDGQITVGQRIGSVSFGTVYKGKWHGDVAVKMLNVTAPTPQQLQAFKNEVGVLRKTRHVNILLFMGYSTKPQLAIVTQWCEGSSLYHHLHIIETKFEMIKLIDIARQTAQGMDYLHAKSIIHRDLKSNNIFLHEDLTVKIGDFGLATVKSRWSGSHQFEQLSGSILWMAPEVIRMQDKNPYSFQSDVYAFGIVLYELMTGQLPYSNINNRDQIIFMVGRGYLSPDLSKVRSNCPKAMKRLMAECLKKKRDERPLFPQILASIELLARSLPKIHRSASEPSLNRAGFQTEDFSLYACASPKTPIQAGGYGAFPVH
Description: Target protein degradation, assay B: T-Rex 293 cells, HA-B-RAF_G466V, 96 well format. Conditions: T-Rex 293 HA-B-RAF_G466V cells, 24 hours, Examples 1-82. It counts as cell-based. A digest of the protocol: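 T-Rex 293 cells stably carrying doxycycline-inducible HA-B-RAF G466V (0.75 ng/mL doxycycline) treated 24 h at 37 °C with compound, 30 nM to 3 pM final, 0.1% DMSO. Fixed, permeabilised, anti-HA immunofluorescence quantified by high-content imaging; DC50 and Dmax (% of control) derived.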

SMILES strings stand for the structures.

T1 sequence (P15056 whole entry V600E): as the sequence (P15056 whole entry G466V) above, with V466G, V600E counted along it

`N#Cc1c(NS(=O)(=O)N2CC[C@@H](F)C2)ccc(F)c1Oc1ccc2ncn(-c3ccc(N4CCC(c5ccc6c(c5)C(=O)N(C5CCC(=O)NC5=O)C6)CC4)cc3)c(=O)c2c1` (stereo partly drawn) [Example 32, (3R)-N-(2-cyano-3-{[3-(4-{4-[2-(2,6-dioxopiperidin-3-yl)-3-oxo-2,3-dihydro-1H-isoindol-5-yl]piperidin-1-yl}phenyl)-4-oxo-3,4-dihydroquinazolin-6-yl]oxy}-4-fluorophenyl)-3-fluoropyrrolidine-1-sulfonamide]: on B-RAF V600E, the DC50 fell in the range of 50 to 500 nM and the Dmax was in the range of 35 to 70%. Further, the DC50 at B-RAF G466V is > 30 nM.

On B-RAF V600E, `N#Cc1c(NS(=O)(=O)N2CC[C@@H](F)C2)ccc(F)c1Oc1ccc2ncn(-c3cnc(N4CCN(CC5CN(c6ccc7c(c6)CN(C6CCC(=O)NC6=O)C7=O)C5)CC4)nc3)c(=O)c2c1` (stereo partly drawn) [Example 9, (3R)-N-{2-cyano-3-[(3-{2-[4-({1-[2-(2,6-dioxopiperidin-3-yl)-1-oxo-2,3-dihydro-1H-isoindol-5-yl]azetidin-3-yl}methyl)piperazin-1-yl]pyrimidin-5-yl}-4-oxo-3,4-dihydroquinazolin-6-yl)oxy]-4-fluorophenyl}-3-fluoropyrrolidine-1-sulfonamide] gave a DC50 of 50 to 500 nM and a Dmax of 35 to 70%. For the same compound, the DC50 at B-RAF G466V was > 30 nM.

For `N#Cc1c(NS(=O)(=O)N2CC[C@@H](F)C2)ccc(F)c1Oc1ccc2ncn(-c3ccc(N4CCN(C(=O)CC5(O)CCN(c6ccc(NC7CCC(=O)NC7=O)cc6F)CC5)CC4)nc3)c(=O)c2c1` (stereo partly drawn) [Example 70, (3R)-N-(2-cyano-3-{[3-(6-{4-[2-(1-{4-[(2,6-dioxopiperidin-3-yl)amino]-2-fluorophenyl}-4-hydroxypiperidin-4-yl)acetyl]piperazin-1-yl}pyridin-3-yl)-4-oxo-3,4-dihydroquinazolin-6-yl]oxy}-4-fluorophenyl)-3-fluoropyrrolidine-1-sulfonamide], at B-RAF V600E, the DC50 fell in the range of 50 to 500 nM and the Dmax fell in the range of 35 to 70%. Further, at B-RAF G466V, the DC50 is 1 to 10 nM and the Dmax is ≤ 35%.

At B-RAF V600E, `N#Cc1c(NS(=O)(=O)N2CC[C@@H](F)C2)ccc(F)c1Oc1ccc2ncn(-c3ccc(N4CCN(CC5CCN(c6ccc([C@H]7CCC(=O)NC7=O)cc6F)CC5)CC4)cc3)c(=O)c2c1` (single isomer, unassigned) [Example 80, (3R)—N-(2-cyano-3-{[3-(4-{4-[(1-{4-[(3R*)-2,6-dioxopiperidin-3-yl]-2-fluorophenyl}piperidin-4-yl)methyl]piperazin-1-yl}phenyl)-4-oxo-3,4-dihydroquinazolin-6-yl]oxy}-4-fluorophenyl)-3-fluoropyrrolidine-1-sulfonamide] registered a DC50 of 50 to 500 nM and a Dmax of 35 to 70%. Further, at B-RAF G466V, the DC50 lay in the range of 1 to 10 nM and the Dmax was in the range of 35 to 70%.

Turning to `N#Cc1c(NS(=O)(=O)N2CC[C@@H](F)C2)ccc(F)c1Oc1ccc2ncn(-c3ccc(N4CCN(CCN5CCN(c6ccc7c(c6)CN(C6CCC(=O)NC6=O)C7=O)CC5)CC4)cc3)c(=O)c2c1` (stereo partly drawn) [Example 10, (3R)-N-{2-cyano-3-[(3-(4-[4-(2-{4-[2-(2,6-dioxopiperidin-3-yl)-1-oxo-2,3-dihydro-1H-isoindol-5-yl]piperazin-1-yl}ethyl)piperazin-1-yl]phenyl}-4-oxo-3,4-dihydroquinazolin-6-yl)oxy]-4-fluorophenyl}-3-fluoropyrrolidine-1-sulfonamide], the DC50 at B-RAF V600E was > 500 nM; on B-RAF G466V it was > 30 nM.

Take `N#Cc1c(NS(=O)(=O)N2CC[C@@H](F)C2)ccc(F)c1Oc1ccc2ncn(-c3ccc(N4CCN(CC5CCN(c6ccc(NC7CCC(=O)NC7=O)cc6F)CC5)CC4)nc3)c(=O)c2c1` (stereo partly drawn) [Example 12, (3R)-N-(2-cyano-3-{[3-(6-{4-[(1-{4-[(2,6-dioxopiperidin-3-yl)amino]-2-fluorophenyl}piperidin-4-yl)methyl]piperazin-1-yl}pyridin-3-yl)-4-oxo-3,4-dihydroquinazolin-6-yl]oxy}-4-fluorophenyl)-3-fluoropyrrolidine-1-sulfonamide]: on B-RAF V600E, the DC50 fell in the range of 5 to 50 nM and the Dmax fell in the range of 35 to 70%. For the same compound, the DC50 on B-RAF G466V is > 30 nM.

On B-RAF V600E, `N#Cc1c(NS(=O)(=O)N2CC[C@@H](F)C2)ccc(F)c1Oc1ccc2ncn(-c3ccc(N4CCN(CC5CCN(c6ccc(C7CCC(=O)NC7=O)cc6F)CC5)CC4)nc3)c(=O)c2c1` (stereo partly drawn) [Example 14, (3R)-N-{2-cyano-3-[(3-{6-[4-({1[4-(2,6-dioxopiperidin-3-yl)-2-fluorophenyl]piperidin-4-yl}methyl)piperazin-1-yl]pyridin-3-yl}-4-oxo-3,4-dihydroquinazolin-6-yl)oxy]-4-fluorophenyl}-3-fluoropyrrolidine-1-sulfonamide] gave a DC50 of 50 to 500 nM and a Dmax of 35 to 70%. Further, the DC50 at B-RAF G466V was > 30 nM.

`N#Cc1c(NS(=O)(=O)N2CC[C@@H](F)C2)ccc(F)c1Oc1ccc2ncn(-c3ccc(N4CCN(CC5CCN(c6ccc(NC7CCC(=O)NC7=O)cc6F)CC5)CC4)cc3)c(=O)c2c1` (stereo partly drawn) [Example 11, (3R)-N-(2-cyano-3-{[3-(4-{4-[(1-{4-[(2,6-dioxopiperidin-3-yl)amino]-2-fluorophenyl}piperidin-4-yl)methyl]piperazin-1-yl}phenyl)-4-oxo-3,4-dihydroquinazolin-6-yl]oxy}-4-fluorophenyl)-3-fluoropyrrolidine-1-sulfonamide]: the DC50 on B-RAF V600E is 5 to 50 nM; on B-RAF G466V, > 30 nM. This compound also returned a maximal degradation (Dmax) on B-RAF V600E of 35 to 70%.

Turning to `N#Cc1c(NS(=O)(=O)N2CC[C@@H](F)C2)ccc(F)c1Oc1ccc2ncn(-c3ccc(N4CCN(CC5CCN(c6ccc(C7CCC(=O)NC7=O)cc6F)CC5)CC4)cc3)c(=O)c2c1` (stereo partly drawn) [Example 13, (3R)-N-{2-cyano-3-[(3-{4-[4-({1-[4-(2,6-dioxopiperidin-3-yl)-2-fluorophenyl]piperidin-4-yl}methyl)piperazin-1-yl]phenyl}-4-oxo-3,4-dihydroquinazolin-6-yl)oxy]-4-fluorophenyl}-3-fluoropyrrolidine-1-sulfonamide], on B-RAF V600E, the DC50 fell in the range of 5 to 50 nM and the Dmax fell in the range of 35 to 70%. In addition, at B-RAF G466V, the DC50 was > 30 nM.

In the case of `N#Cc1c(NS(=O)(=O)N2CC[C@@H](F)C2)ccc(F)c1Oc1ccc2ncn(-c3cnc(N4CCN(C(=O)CC5(O)CCN(c6ccc7c(c6)CN([C@H]6CCC(=O)NC6=O)C7=O)CC5)CC4)nc3)c(=O)c2c1` [Example 68, (3R)-N-(2-cyano-3-{[3-(2-{4-[2-(1-{2-[(3S)-2,6-dioxopiperidin-3-yl]-1-oxo-2,3-dihydro-1H-isoindol-5-yl}-4-hydroxypiperidin-4-yl)acetyl]piperazin-1-yl}pyrimidin-5-yl)-4-oxo-3,4-dihydroquinazolin-6-yl]oxy}-4-fluorophenyl)-3-fluoropyrrolidine-1-sulfonamide], the values for the DC50 on B-RAF V600E and on B-RAF G466V were 50 to 500 nM and 1 to 10 nM, respectively. Besides, the Dmax at B-RAF V600E and at B-RAF G466V was 35 to 70% in each case.

As to `N#Cc1c(NS(=O)(=O)N2CC[C@@H](F)C2)ccc(F)c1Oc1ccc2ncn(-c3ccc(N4CCN(C(=O)CC5(O)CCN(c6ccc(NC7CCC(=O)NC7=O)cc6F)CC5)CC4)cc3)c(=O)c2c1` (stereo partly drawn) [Example 67, (3R)-N-{2-cyano-3-[(3-(4-{4-[2-(1-{4-[(2,6-dioxopiperidin-3-yl)amino]-2-fluorophenyl}-4-hydroxypiperidin-4-yl)acetyl]piperazin-1-yl}phenyl)-4-oxo-3,4-dihydroquinazolin-6-yl]oxy}-4-fluorophenyl)-3-fluoropyrrolidine-1-sulfonamide], the DC50 is 50 to 500 nM on B-RAF V600E and > 30 nM on B-RAF G466V. The Dmax at B-RAF V600E was 35 to 70%.

As for `N#Cc1c(NS(=O)(=O)N2CC[C@@H](F)C2)ccc(F)c1Oc1ccc2ncn(-c3ccc(N4CCN(CC5CN(c6ccc7c(c6)CN(C6CCC(=O)NC6=O)C7=O)C5)CC4)nc3)c(=O)c2c1` (stereo partly drawn) [Example 8, (3R)-N-{2-cyano-3-[(3-{6-[4-({1-[2-(2,6-dioxopiperidin-3-yl)-1-oxo-2,3-dihydro-1H-isoindol-5-yl]azetidin-3-yl}methyl)piperazin-1-yl]pyridin-3-yl}-4-oxo-3,4-dihydroquinazolin-6-yl)oxy]-4-fluorophenyl}-3-fluoropyrrolidine-1-sulfonamide], on B-RAF V600E, the DC50 was in the range of 50 to 500 nM and the Dmax was in the range of 35 to 70%. For the same compound, on B-RAF G466V, the DC50 was in the range of 1 to 10 nM and the Dmax is ≤ 35%.

Take `N#Cc1c(NS(=O)(=O)N2CC[C@@H](F)C2)ccc(F)c1Oc1ccc2ncn(-c3ccc(N4CCN(c5ccc(C(=O)NC6CCC(=O)NC6=O)c(F)c5)CC4)cc3)c(=O)c2c1` (stereo partly drawn) [Example 72, 4-[4-(4-{6-[2-cyano-6-fluoro-3-({[(3R)-3-fluoropyrrolidin-1-yl]sulfonyl}amino)phenoxy]-4-oxo-3,4-dihydroquinazolin-3-yl}phenyl)piperazin-1-yl]-N-(2,6-dioxopiperidin-3-yl)-2-fluorobenzamide]: the figures for the 50% degradation concentration (DC50) at B-RAF V600E and at B-RAF G466V were > 500 nM and > 30 nM, respectively.
